Laboratory results published in the NIST ThermoML archive (doi:10.1021/je900124n).
Several values for one entry are separate records, joined by “and”; a condition that tells them apart may be missing. Equal values may be shown once. ± gives the expanded uncertainty stated by the source.

Conditions: Fluid (supercritical or subcritical phases), Buoyancy - hydrostatic balance with magnetic suspension - two sinkers

CCC [propane]
Conditions	mass density
370.82 K, 4316.6 kPa	196.656 ± 1.1 kg/m3 and 196.671 ± 1.1 kg/m3
370.82 K, 4316.7 kPa	196.709 ± 1.1 kg/m3 and 196.642 ± 1.1 kg/m3
370.82 K, 4316.8 kPa	196.799 ± 1.1 kg/m3
370.83 K, 4238.2 kPa	146.891 ± 1.2 kg/m3 and 146.895 ± 1.2 kg/m3 and 146.889 ± 1.2 kg/m3
370.83 K, 4238.3 kPa	146.899 ± 1.2 kg/m3 and 146.89 ± 1.2 kg/m3 and 146.892 ± 1.2 kg/m3
370.83 K, 4316.8 kPa	196.721 ± 1.1 kg/m3 and 196.767 ± 1.1 kg/m3 and 196.684 ± 1.1 kg/m3
370.83 K, 4323.4 kPa	219.805 ± 0.99 kg/m3 [middle of 5 runs]
370.83 K, 4323.5 kPa	219.874 ± 0.99 kg/m3 and 219.908 ± 0.99 kg/m3 and 219.975 ± 0.99 kg/m3
370.83 K, 4330.9 kPa	243.656 ± 1.2 kg/m3 [middle of 4 runs]
370.83 K, 4331 kPa	243.626 ± 1.2 kg/m3 and 243.674 ± 1.2 kg/m3 and 243.648 ± 1.2 kg/m3
370.83 K, 4331.1 kPa	243.671 ± 1.2 kg/m3
370.85 K, 4240.8 kPa	147.314 ± 0.24 kg/m3
370.85 K, 4240.9 kPa	147.324 ± 0.24 kg/m3
370.85 K, 4306.4 kPa	177.862 ± 0.26 kg/m3
370.85 K, 4306.5 kPa	177.914 ± 0.26 kg/m3 and 177.843 ± 0.26 kg/m3
370.85 K, 4306.6 kPa	177.931 ± 0.26 kg/m3 and 177.874 ± 0.26 kg/m3
370.85 K, 4322.8 kPa	208.978 ± 0.32 kg/m3 and 208.99 ± 0.32 kg/m3
370.85 K, 4322.9 kPa	208.933 ± 0.32 kg/m3 and 209.016 ± 0.32 kg/m3
370.85 K, 4323 kPa	209.074 ± 0.32 kg/m3
370.85 K, 4327.4 kPa	226.65 ± 0.31 kg/m3
370.85 K, 4327.5 kPa	226.647 ± 0.31 kg/m3
370.85 K, 4353.6 kPa	265.164 ± 0.21 kg/m3
370.85 K, 4353.7 kPa	265.36 ± 0.21 kg/m3 and 265.182 ± 0.21 kg/m3 and 265.138 ± 0.21 kg/m3
370.85 K, 4353.8 kPa	265.176 ± 0.21 kg/m3 [middle of 4 runs]
370.86 K, 4327.6 kPa	226.701 ± 0.31 kg/m3 and 226.673 ± 0.31 kg/m3
371.82 K, 4387.3 kPa	196.837 ± 0.87 kg/m3 and 196.769 ± 0.87 kg/m3
371.82 K, 4416.6 kPa	243.565 ± 0.91 kg/m3
371.83 K, 4293.5 kPa	147.926 ± 0.75 kg/m3
371.83 K, 4293.6 kPa	147.93 ± 0.75 kg/m3 and 147.934 ± 0.75 kg/m3 and 147.924 ± 0.74 kg/m3
371.83 K, 4293.7 kPa	147.947 ± 0.75 kg/m3 and 147.93 ± 0.74 kg/m3
371.83 K, 4387.3 kPa	196.784 ± 0.87 kg/m3 and 196.769 ± 0.87 kg/m3
371.83 K, 4387.4 kPa	196.809 ± 0.87 kg/m3 [middle of 4 runs]
371.83 K, 4400.8 kPa	219.56 ± 0.86 kg/m3
371.83 K, 4400.9 kPa	219.574 ± 0.85 kg/m3 and 219.677 ± 0.85 kg/m3 and 219.642 ± 0.85 kg/m3
371.83 K, 4401 kPa	219.681 ± 0.86 kg/m3 [middle of 4 runs]
371.83 K, 4416.6 kPa	243.624 ± 0.91 kg/m3
371.83 K, 4416.7 kPa	243.578 ± 0.91 kg/m3 and 243.586 ± 0.91 kg/m3
371.83 K, 4416.8 kPa	243.575 ± 0.91 kg/m3 and 243.616 ± 0.91 kg/m3 and 243.58 ± 0.91 kg/m3
371.83 K, 4416.9 kPa	243.605 ± 0.9 kg/m3
371.85 K, 4295.8 kPa	148.252 ± 0.16 kg/m3
371.85 K, 4295.9 kPa	148.276 ± 0.16 kg/m3 and 148.252 ± 0.16 kg/m3
371.85 K, 4370.3 kPa	177.981 ± 0.24 kg/m3
371.85 K, 4370.4 kPa	178.031 ± 0.24 kg/m3 and 177.991 ± 0.24 kg/m3 and 178.027 ± 0.24 kg/m3
371.85 K, 4370.5 kPa	178.012 ± 0.24 kg/m3
371.85 K, 4397.1 kPa	208.855 ± 0.19 kg/m3 and 208.907 ± 0.19 kg/m3
371.85 K, 4397.2 kPa	208.865 ± 0.19 kg/m3 and 208.929 ± 0.19 kg/m3 and 208.907 ± 0.19 kg/m3
371.85 K, 4407.1 kPa	226.926 ± 0.19 kg/m3
371.85 K, 4407.2 kPa	226.521 ± 0.19 kg/m3 and 226.511 ± 0.19 kg/m3
371.85 K, 4450.2 kPa	265.14 ± 0.25 kg/m3
371.85 K, 4450.3 kPa	265.143 ± 0.25 kg/m3
371.85 K, 4450.4 kPa	265.125 ± 0.25 kg/m3 and 265.134 ± 0.25 kg/m3 and 265.131 ± 0.25 kg/m3
371.86 K, 4407.3 kPa	226.504 ± 0.19 kg/m3 and 226.483 ± 0.19 kg/m3
372 K, 4517.4 kPa	281.197 ± 0.71 kg/m3
372 K, 4517.6 kPa	281.196 ± 0.71 kg/m3 and 281.206 ± 0.71 kg/m3 and 281.197 ± 0.71 kg/m3
372 K, 4517.7 kPa	281.2 ± 0.71 kg/m3 [middle of 4 runs]
375 K, 3980.2 kPa	100.464 ± 0.14 kg/m3 and 100.463 ± 0.14 kg/m3
375 K, 3980.3 kPa	100.468 ± 0.14 kg/m3 and 100.463 ± 0.14 kg/m3
375 K, 4455 kPa	148.081 ± 0.3 kg/m3 [middle of 5 runs]
375 K, 4455.1 kPa	148.084 ± 0.3 kg/m3 and 148.085 ± 0.3 kg/m3 and 148.081 ± 0.3 kg/m3
375 K, 4456.1 kPa	148.366 ± 0.097 kg/m3 and 148.364 ± 0.097 kg/m3 and 148.371 ± 0.097 kg/m3
375 K, 4456.2 kPa	148.361 ± 0.097 kg/m3
375 K, 4568.9 kPa	178.196 ± 0.12 kg/m3 [middle of 4 runs]
375 K, 4569 kPa	178.185 ± 0.12 kg/m3
375 K, 4609.7 kPa	197.026 ± 0.44 kg/m3 and 197.015 ± 0.44 kg/m3
375 K, 4609.8 kPa	197.023 ± 0.44 kg/m3 [middle of 5 runs]
375 K, 4630.9 kPa	208.979 ± 0.095 kg/m3
375 K, 4631 kPa	208.963 ± 0.095 kg/m3 and 208.962 ± 0.095 kg/m3 and 208.991 ± 0.095 kg/m3
375 K, 4631.1 kPa	208.972 ± 0.095 kg/m3
375 K, 4648.5 kPa	219.668 ± 0.34 kg/m3
375 K, 4648.6 kPa	219.65 ± 0.34 kg/m3 [middle of 6 runs]
375 K, 4648.7 kPa	219.656 ± 0.34 kg/m3
375 K, 4660.8 kPa	226.495 ± 0.085 kg/m3
375 K, 4660.9 kPa	226.503 ± 0.085 kg/m3 and 226.483 ± 0.085 kg/m3
375 K, 4661 kPa	226.54 ± 0.085 kg/m3
375 K, 4694.5 kPa	243.594 ± 0.41 kg/m3 and 243.602 ± 0.41 kg/m3 and 243.583 ± 0.41 kg/m3
375 K, 4694.6 kPa	243.603 ± 0.41 kg/m3 [middle of 4 runs]
375 K, 4761.6 kPa	265.09 ± 0.087 kg/m3
375 K, 4761.7 kPa	265.094 ± 0.087 kg/m3 and 265.087 ± 0.087 kg/m3
375 K, 4761.8 kPa	265.087 ± 0.087 kg/m3
375 K, 4761.9 kPa	265.101 ± 0.087 kg/m3
375 K, 4846.9 kPa	281.14 ± 0.22 kg/m3 [middle of 4 runs]
375 K, 4847.1 kPa	281.138 ± 0.22 kg/m3 and 281.143 ± 0.22 kg/m3
375 K, 5843.8 kPa	337.161 ± 0.077 kg/m3
375 K, 5843.9 kPa	337.161 ± 0.077 kg/m3
375 K, 5844 kPa	337.161 ± 0.077 kg/m3 and 337.159 ± 0.077 kg/m3
375 K, 5844.1 kPa	337.162 ± 0.077 kg/m3
375 K, 5844.2 kPa	337.16 ± 0.077 kg/m3 and 337.158 ± 0.077 kg/m3
375.01 K, 4661 kPa	226.502 ± 0.085 kg/m3
375.01 K, 4847.1 kPa	281.141 ± 0.22 kg/m3 and 281.139 ± 0.22 kg/m3
380 K, 320.18 kPa	4.576 ± 0.0029 kg/m3
380 K, 320.19 kPa	4.576 ± 0.0029 kg/m3
380 K, 569.88 kPa	8.3091 ± 0.0033 kg/m3 and 8.3093 ± 0.0033 kg/m3
380 K, 569.89 kPa	8.3092 ± 0.0033 kg/m3 and 8.3093 ± 0.0033 kg/m3
380 K, 954.79 kPa	14.3809 ± 0.0041 kg/m3
380 K, 954.8 kPa	14.3809 ± 0.0041 kg/m3
380 K, 954.81 kPa	14.3809 ± 0.0041 kg/m3
380 K, 1441 kPa	22.71 ± 0.026 kg/m3
380 K, 1441.3 kPa	22.7154 ± 0.026 kg/m3
380 K, 1442 kPa	22.7271 ± 0.026 kg/m3
380 K, 1442.3 kPa	22.733 ± 0.026 kg/m3
380 K, 1442.6 kPa	22.7383 ± 0.026 kg/m3
380 K, 2208.6 kPa	37.8037 ± 0.031 kg/m3 [middle of 4 runs]
380 K, 2208.8 kPa	37.8087 ± 0.031 kg/m3
380 K, 3020.8 kPa	57.7697 ± 0.038 kg/m3 and 57.7694 ± 0.038 kg/m3
380 K, 3020.9 kPa	57.7728 ± 0.038 kg/m3
380 K, 3021 kPa	57.7733 ± 0.038 kg/m3
380 K, 3021.1 kPa	57.7794 ± 0.038 kg/m3
380 K, 3513.2 kPa	73.3301 ± 0.055 kg/m3
380 K, 3513.4 kPa	73.3336 ± 0.055 kg/m3
380 K, 3513.5 kPa	73.3364 ± 0.055 kg/m3
380 K, 3513.6 kPa	73.3391 ± 0.055 kg/m3 and 73.3404 ± 0.055 kg/m3 and 73.3402 ± 0.055 kg/m3
380 K, 4131.9 kPa	100.514 ± 0.089 kg/m3
380 K, 4132 kPa	100.514 ± 0.089 kg/m3
380 K, 4132.1 kPa	100.516 ± 0.089 kg/m3 and 100.515 ± 0.089 kg/m3
380 K, 4703.8 kPa	148.075 ± 0.14 kg/m3
